# In patent publication EP2737897A2, “Anti-inflammatory botanical products for the treatment of metabolic syndrome and diabetes” (Metaproteomics, LLC, priority 2005, dated 2007):
# Read-outs that look alike come from different tables or passages of the source. Marks after values point to notes of the source that are not given here.
# Assays:
# PGE2 synthesis = assay: cells; type: cell-based, murine; settings: for IC50: Mus musculus
# 3T3-L1 adipocytes = assay: Lipogenesis in 3T3-L1 adipocytes, Oil Red O or BODIPY staining; type: cell-based, murine
# [1] = system: interleukin-6 secretion from TNFα-treated 3T3-L1 adipocytes; assay: Interleukin-6 secretion from TNFα-treated 3T3-L1 adipocytes; type: cell-based, murine; settings: Mus musculus, 3T3-L1, read-out: IL-6 Index
# [2] = system: IL-6 secretion in LPS/3T3-L1 adipocytes; assay: IL-6 secretion in the lipopolysaccharide/3T3-L1 adipocyte model (Example 26); type: cell-based, murine; settings: 100 ng LPS/ml
# [3] = system: adiponectin secretion in LPS/3T3-L1 adipocytes; assay: Adiponectin secretion in the lipopolysaccharide/3T3-L1 adipocyte model (Example 26); settings: 100 ng LPS/ml; for % Stimulation (maximum, adiponectin secretion): NS = not significantly different from the LPS control
# [4] = system: adiponectin secretion from insulin-resistant 3T3-L1 adipocytes
# [5] = system: IL-6 secretion from insulin-resistant 3T3-L1 adipocytes; assay: IL-6 secretion from insulin-resistant 3T3-L1 adipocytes; type: cell-based, murine; settings: Mus musculus
# [6] = system: adiponectin secretion from insulin-resistant 3T3-L1 adipocytes; assay: cells; settings: Mus musculus
# [7] = system: resistin secretion from insulin-resistant 3T3-L1 adipocytes; assay: cells; settings: Mus musculus, 3T3-L1, read-out: Resistin Index
# Description: Resistin Assay - The amount of resistin secreted into the medium was quantified using the Quantikine® Mouse Resistin Immunoassay kit with no modifications (R&D Systems, Minneapolis, MN). […] All supernatant media samples were diluted 1:20 with dilution media supplied by the manufacturer before assay.
# Statistical Calculations and Interpretation - All assays were preformed in duplicate. […] Differences among the doses were determined using the Student's t-test without correction for multiple comparisons; the nominal five percent probability of a type I error (one-tail) was selected.
# [8] = system: adiponectin secretion from TNFα-treated 3T3-L1 adipocytes; assay: Adiponectin secretion from TNFα-treated 3T3-L1 adipocytes; settings: 10 ng TNFα/ml (Table 9)
# COX-2 protein expression = assay: Western blot of COX-2 protein expression in LPS-stimulated RAW 264.7 cells (Example 8); type: cell-based, murine; settings: 20 hours stimulation with LPS; compared to DMSO solvent control
# NF-κB = NF-κB DNA binding of nuclear extracts of LPS-stimulated RAW 264.7 cells, TransAM NF-κB kit (Example 9); type: cell-based, murine; settings: MgRIAA 55 and 14 µg/ml, parthenolide 80 µM, LY294002 25 µM; LPS 1 µg/ml 4 h
# NF-kBp65 = NF-kBp65 nuclear translocation in TNFα-treated D40 3T3-L1 adipocytes, TransAM ELISA (Example 32); type: cell-based, murine; settings: 2.5 and 5.0 µg/ml; three or 24 hours following TNFα
# Description: ELISA - 3T3-L1 adipocytes were maintained in growth media for 40 days following differentiation. Nuclear NF-kBp65 was determined using the TransAM™ NF-kB kit from Active Motif (Carlsbad, CA) was used with no modifications. […] Protein assay - Nuclear protein was quantified using the Active Motif Fluorescent Protein Quantificantion Kit. Statistical Analysis - Comparisons were performed using a one-tailed Student's t-test. The probability of a type I error was set at the nominal five percent level.
# [9] = RAW264.7, read-out: Relative IC50
# [10] = 3T3-L1, read-out: Adiponectin Index
compound,measurement,setting,value
O=c1c(O)c(-c2cc(O)c(O)c(O)c2)oc2cc(O)cc(O)c12 [Myricetin],IC50,PGE2 synthesis; RAW264.7,> 12 µg/mL
same,IC50,PGE2 synthesis; [9],> 12 µg/mL
O=c1c(O)c(-c2ccccc2)oc2cc(O)cc(O)c12 [Galangin],Relative Potency,PGE2 synthesis,high
CN(C)C(=N)N=C(N)N [Metformin],activity at 50 µg/mL,"3T3-L1 adipocytes; Mus musculus, 3T3-L1, read-out: lipogenic index (observed)",79%
same,activity at 1 µg/mL,[1],91%
same,activity at 5 µg/mL,[1],96%
same,activity at 10 µg/mL,[1],78%
same,activity at 50 µg/mL,[1],78%
O=C(O)c1ccccc1O [Salicylic acid],Concentration (dose providing the maximum inhibition of IL-6 secretion),[2],50.0 µg/mL
same,IL-6 Index (maximum inhibition),[2]; [IL-6Test - IL-6Control]/[IL-6LPS - IL-6Control],0.52*
same,Concentration (of maximum stimulation of adiponectin secretion),[3],173 µg/mL
same,"% Stimulation (maximum, adiponectin secretion)",[3],failed to induce adiponectin secretion
Oc1cc(O)c2c(c1)OC(c1ccc(O)c(O)c1)C(O)C2 (stereo not drawn) [Catechin],IC50,PGE2 synthesis; RAW264.7,> 12 µg/mL
same,IC50,PGE2 synthesis; [9],> 12 µg/mL
O=c1c(-c2ccc(O)cc2)coc2cc(O)cc(O)c12 [Genistein],Relative Potency,PGE2 synthesis,high
"CC(C)CCC1=C(O)C(CCC(C)C)(CCC(C)C)C(=O)C(C(=O)C(C)C)=C1O [Hexahydrocolupulone (HHCL), Hexahydrocolupulone]",adipogenic response (lipid content relative to solvent control),"3T3-L1 adipocytes; hops compounds 10, 5, 4 or 2 µg/ml, spent hops 50 µg/ml, positive controls indomethacin 5.0 and troglitazone […]",failed to elicit a lipogenic response greater than the solvent controls
same,Adiponectin Index,[4]; 3t3-l1 adipocytes,1.71#
same,activity at 6.25 µg/mL,"[5]; 3T3-L1, 6.25 µg/ml, indexed to insulin only control, read-out: IL-6 Index",100%
same,activity at 25 µg/mL,"[5]; 3T3-L1, 25.0 µg/ml, indexed to insulin only control, read-out: IL-6 Index",119%
same,activity at 50 µg/mL,"[5]; 3T3-L1, 50.0 µg/ml, indexed to insulin only control, read-out: IL-6 Index",277%
same,fold induction at 6.25 µg/mL,[6]; [10],1.05
same,fold induction at 25 µg/mL,[6]; [10],1.62
same,fold induction at 50 µg/mL,[6]; [10],1.65
same,maximal fold induction,"[6]; 3T3-L1, read-out: Maximum Adiponectin Secretion",1.83
same,EC50,"[6]; 3T3-L1, read-out: Test Material at Half Maximal Secretion",3.2 µg/mL
O=c1c(O)c(-c2ccc(O)c(O)c2)oc2cc(O)cc(O)c12 [Quercetin],Relative Potency,PGE2 synthesis,high
Oc1ccc(C=Cc2cc(O)cc(O)c2)cc1 [Resveratrol],IC50,PGE2 synthesis; RAW264.7,5.8 µg/mL
same,IC50,PGE2 synthesis; [9],2 to 6 µg/mL
Cc1c(C)c2c(c(C)c1O)CCC(C)(COc1ccc(CC3SC(=O)NC3=O)cc1)O2 (stereo not drawn) [Troglitazone],concentration at which maximal adiponectin secretion was observed,[4]; of the four doses tested,2.5 µg/mL
same,"% Inhibition (maximum, IL-6 secretion)",[2],69* %
same,Concentration (dose providing the maximum inhibition of IL-6 secretion),[2],10.0 µg/mL
same,activity at 0.625 µg/mL,[7],89%
same,activity at 5 µg/mL,[7],143%
same,Concentration (of maximum stimulation of adiponectin secretion),[3],0.625 µg/mL
same,"% Stimulation (maximum, adiponectin secretion)",[3],15%
same,activity at 0.625 µg/mL,"[5]; 3T3-L1, read-out: IL-6 Index",100%
same,activity at 5 µg/mL,"[5]; 3T3-L1, read-out: IL-6 Index",131%
same,Concentration (of maximum adiponectin secretion),[8],0.625 µg/mL
same,EC50,"[6]; 3T3-L1, read-out: Test Material at Half Maximal Secretion, estimated from the slope of Hofstee plots",0.085 µg/mL
same,activity at 1 µg/mL,[1],66%
COc1ccc2c(c1)c(CC(=O)O)c(C)n2C(=O)c1ccc(Cl)cc1 [Indomethacin],activation at 5 µg/mL,"3T3-L1 adipocytes; Mus musculus, 3T3-L1, read-out: increase of nonpolar lipid incorporation relative to the solvent controls",33%
same,"% Inhibition (maximum, IL-6 secretion)",[2],53* %
same,"% Stimulation (maximum, adiponectin secretion)",[3],9%
c1cc2c(cc1[C@H]1OC[C@H]3[C@@H]1CO[C@@H]3c1ccc3c(c1)OCO3)OCO2 [Sesamin],IC50,PGE2 synthesis; RAW264.7,> 12 µg/mL
same,IC50,PGE2 synthesis; [9],> 12 µg/mL
O=c1c(O)c(-c2ccc(O)cc2)oc2cc(O)cc(O)c12 [Keampferol],IC50,PGE2 synthesis; RAW264.7,4.3 µg/mL
same,IC50,PGE2 synthesis; [9],2 to 6 µg/mL
C[C@@H]1O[C@@H](OC[C@H]2O[C@@H](Oc3c(-c4ccc(O)c(O)c4)oc4cc(O)cc(O)c4c3=O)[C@H](O)[C@@H](O)[C@@H]2O)[C@H](O)[C@H](O)[C@H]1O [Rutin],IC50,PGE2 synthesis; RAW264.7,> 12 µg/mL
same,IC50,PGE2 synthesis; [9],> 12 µg/mL
CC(=O)Oc1ccccc1C(=O)O [Aspirin],Concentration (dose providing the maximum inhibition of IL-6 secretion),[2],25.0 µg/mL
same,Concentration (of maximum stimulation of adiponectin secretion),[3],113 µg/mL
same,"% Stimulation (maximum, adiponectin secretion)",[3],failed to induce adiponectin secretion
CC(C)Cc1ccc(C(C)C(=O)O)cc1 (stereo not drawn) [Ibuprofen],"% Inhibition (maximum, IL-6 secretion)",[2],54* %
same,Concentration (dose providing the maximum inhibition of IL-6 secretion),[2],0.625 µg/mL
same,Concentration (of maximum stimulation of adiponectin secretion),[3],0.625 µg/mL
same,"% Stimulation (maximum, adiponectin secretion)",[3],22%
C=C1C(=O)O[C@@H]2[C@H]3O[C@]3(C)CC/C=C(\C)CC[C@@H]12 [Parthenolide],reduction in COX-2 protein expression,COX-2 protein expression,22.5%
same,NF-κB DNA binding,NF-κB,significant reduction
COc1ccc2cc3[n+](cc2c1OC)CCc1cc2c(cc1-3)OCO2 [Berberine],IC50,PGE2 synthesis; RAW264.7,3.3 µg/mL
same,IC50,PGE2 synthesis; [9],2 to 6 µg/mL
CCc1ccc(CCOc2ccc(CC3SC(=O)NC3=O)cc2)nc1 (stereo not drawn) [Pioglitazone],"% Inhibition (maximum, IL-6 secretion)",[2],63* %
same,"% Stimulation (maximum, adiponectin secretion)",[3],12%
same,amount of nuclear NF-kBp65,NF-kBp65,did not inhibit
